According to PubChem BioAssay (NCI):
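In this assay, cells in 96-well plates receive the compound at five concentrations for 48 hours. Endpoints are linearly interpolated between the surrounding concentrations. Abbreviation: GI50, concentration required for 50% inhibition of growth. TGI is the concentration that stops growth completely.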

What was measured:
Assay in all cases: NCI-60 cell line screen, 48 h
OVCAR-4 ovarian = system: OVCAR-4 ovarian
HCT-116 colon = system: HCT-116 colon
CCRF-CEM leukemia = system: CCRF-CEM leukemia
CAKI-1 renal = system: CAKI-1 renal
SF-539 CNS = system: SF-539 CNS
UACC-62 melanoma = system: UACC-62 melanoma
ACHN renal = system: ACHN renal
NCI-H522 lung = system: NCI-H522 lung
SNB-75 CNS = system: SNB-75 CNS
IGROV1 ovarian = system: IGROV1 ovarian

Compound | GI50 (OVCAR-4 ovarian) | TGI (OVCAR-4 ovarian) | GI50 (HCT-116 colon) | GI50 (CCRF-CEM leukemia) | TGI (CCRF-CEM leukemia) | GI50 (CAKI-1 renal) | TGI (CAKI-1 renal) | GI50 (SF-539 CNS) | TGI (SF-539 CNS) | GI50 (UACC-62 melanoma) | TGI (UACC-62 melanoma) | GI50 (ACHN renal) | TGI (ACHN renal) | GI50 (NCI-H522 lung) | TGI (NCI-H522 lung) | GI50 (SNB-75 CNS) | TGI (SNB-75 CNS) | GI50 (IGROV1 ovarian) | TGI (IGROV1 ovarian) | TGI (HCT-116 colon)
CCC1=C[C@@H]2CN(C1)Cc1c([nH]c3ccccc13)[C@@](C(=O)OC)(c1cc3c(cc1OC)N(C=O)[C@H]1[C@@](O)(C(=O)OC)[C@H](OC(C)=O)[C@]4(CC)[C@@H]5C[C@@H]5CN5CC[C@]31[C@@H]54)C2 | 0.054 µM | > 6.25 µM | < 0.000625 µM | < 0.000625 µM | > 6.25 µM | 0.253 µM | > 6.25 µM | 0.000646 µM | 0.0201 µM | < 0.000625 µM | > 6.25 µM | 0.0315 µM | > 6.25 µM | < 0.000625 µM | 0.01 µM | 0.000766 µM | > 5.74 µM | 0.00261 µM | > 6.25 µM | 
COc1ccc(C2=NN(C(=O)COc3ccc(Cl)cc3)C(O)(c3cc(F)c(Cl)cc3Cl)C2)cc1OC (stereo not drawn) | 2.26 µM | 6.97 µM | 1.23 µM | 0.218 µM | 1.8 µM | 1.68 µM | 3.6 µM | 1.81 µM | 3.55 µM | 5.6 µM | 18.7 µM | 1.63 µM | 3.28 µM |  | 2.37 µM | 2.69 µM | 7.3 µM | 10.2 µM | 22.2 µM | 2.58 µM
CCOc1cc2c(cnc3c4cc(OC)c(OC)cc4ccc23)cc1OC |  | > 100 µM |  |  | > 100 µM |  | > 100 µM |  | > 100 µM |  | > 100 µM |  | > 100 µM |  | > 100 µM |  | > 100 µM |  | > 100 µM | > 100 µM
Cc1ncc([N+](=O)[O-])n1CCNS(=O)(=O)CCCn1ccnc1[N+](=O)[O-] |  | > 100 µM |  |  | > 100 µM |  | > 100 µM |  | > 100 µM |  | > 100 µM |  | > 100 µM |  | > 100 µM |  | > 100 µM |  | > 100 µM | > 100 µM
Nc1ccc(C(=O)c2ccc(N)c(Br)c2)cc1Br | 6.24 µM | > 100 µM | 0.461 µM | 0.483 µM | > 100 µM | 0.299 µM | 14.7 µM | 0.296 µM | 3.16 µM | 0.645 µM | > 62.1 µM | 1.47 µM | > 69.9 µM | 0.256 µM | 0.623 µM | 0.291 µM | 13.4 µM | 0.474 µM | 18.4 µM | 11.6 µM
CC(=O)OCSc1ncnc2c1ncn2CN1CCOCC1 |  | > 100 µM |  |  | > 100 µM |  | > 100 µM |  | > 100 µM |  | > 100 µM |  | > 100 µM |  | > 100 µM |  | > 100 µM |  | > 100 µM | > 100 µM
CCCCCNC(=O)[C@@H]1CCCN2C(=O)CC[C@H](NC(=O)[C@H](Cc3ccc(OP(=O)(O)O)cc3)NC(C)=O)C(=O)N12 | > 25 µM | > 25 µM | > 25 µM | > 25 µM | > 25 µM | > 25 µM | > 25 µM | > 25 µM | > 25 µM | > 25 µM | > 25 µM | > 25 µM | > 25 µM | > 25 µM | > 25 µM | > 25 µM | > 25 µM | > 25 µM | > 25 µM | > 25 µM
OCC(O)C(O)C(O)C1SC(c2ccccc2)=NN1c1ccccc1 (stereo not drawn) |  | > 100 µM |  |  | > 100 µM |  | > 100 µM |  | 98.7 µM |  | 74.2 µM |  | > 83 µM |  | 75.4 µM |  | 35.5 µM |  | > 100 µM | > 100 µM
CC1(C)COCN1COC1CCCCC1 |  | > 100 µM |  |  | > 100 µM |  | > 100 µM |  | > 100 µM |  | > 100 µM |  | > 100 µM |  | > 100 µM |  | > 100 µM |  | > 100 µM | > 100 µM
